Data set [1] concerns IL-6 expression. The data set can be described thus: UVB-induced IL-6 expression in human keratinocytes (ELISA). Type of data set: cell-based. The note with it: UVB-treated human keratinocytes; peptide 10 μg/mL. How it is done:
(§1) Human skin epithelial cells (ATCC CRL-2592), keratinocytes (ATCC CRL-2404) and skin fibroblasts (ATCC CRL-7481) were employed in the study. Cells were seeded into 6-well plates and allowed to grow to >95% confluence in Dulbecco's modified Eagle's medium (DMEM; 4 mM L-glutamine, 4.5 g/L glucose) adjusted to contain 1.5 g/L sodium bicarbonate and supplemented with 10% fetal bovine serum (FBS). For keratinocytes, cells were grown in keratinocyte growth media (without serum) supplemented with 5 ng/mL human recombinant epithelial growth factor (EGF; Invitrogen, Grand Island, N.Y.). After the cell monolayer reached >95% confluence, the cells were serum-starved or EGF-starved for 24 hours in complete medium without serum. UVA or UVB was generated using a UVLMS lamp (4-W model, 3UV assembly; Upland, Calif.) with the irradiation wavelength set at 365 or 302 nm, respectively. The UV lamp was placed 15 cm above the tissue culture plate. Before UV treatment, the tissue culture media was replaced with PBS, after which the cells were placed under the UVB lamp (450 μW/cm^2, measured using a radiometer) for 35 seconds (epithelial cells and fibroblasts) or 25 seconds (keratinocytes). […] IL-6 and MMP-1 levels in the media were measured, respectively, using human IL-6 (DIACLONE, Stamford, Conn.) and MMP-1 (Calbiochem, San Diego, Calif.) ELISA kits according to manufacturers' instructions. […]
(In general: An ELISA detects its analyte on a solid surface through an enzyme-linked reagent.)

For data set [2], the system named is MMP-1 expression. As to the kind of experiment: UVA-induced MMP-1 expression in human skin fibroblasts (ELISA). Type of data set: cell-based. The note with it: UVA 500 μW/cm^2, peptide 10 μg/mL. How it is done: as §1
In data set [3] the test system is IL-6 expression. As to the kind of experiment: UVB-induced IL-6 expression in human skin fibroblasts (ELISA). The following applies: human fibroblasts after UVB. Type of data set: cell-based. How it is done:
(§2) Human skin epithelial cells (ATCC CRL-2592), keratinocytes (ATCC CRL-2404) and skin fibroblasts (ATCC CRL-7481) were employed in the study. Cells were seeded into 6-well plates and allowed to grow to >95% confluence in Dulbecco's modified Eagle's medium (DMEM; 4 mM L-glutamine, 4.5 g/L glucose) adjusted to contain 1.5 g/L sodium bicarbonate and supplemented with 10% fetal bovine serum (FBS). For keratinocytes, cells were grown in keratinocyte growth media (without serum) supplemented with 5 ng/mL human recombinant epithelial growth factor (EGF; Invitrogen, Grand Island, N.Y.). After the cell monolayer reached >95% confluence, the cells were serum-starved or EGF-starved for 24 hours in complete medium without serum. UVA or UVB was generated using a UVLMS lamp (4-W model, 3UV assembly; Upland, Calif.) with the irradiation wavelength set at 365 or 302 nm, respectively. The UV lamp was placed 15 cm above the tissue culture plate. Before UV treatment, the tissue culture media was replaced with PBS, after which the cells were placed under the UVB lamp (450 μW/cm^2, measured using a radiometer) for 35 seconds (epithelial cells and fibroblasts) or 25 seconds (keratinocytes). UVA treatment was conducted (500 μW/cm^2) for 30 seconds with fibroblasts. After UV treatment, PBS was immediately replaced with complete medium (without serum or EGF) containing either no peptide or peptide at a specified concentration, and the plates were incubated at 37° C., 5% CO2 for 15-24 hours. The cell media was then collected and spun down at 15000 rpm for 2 minutes to remove cell debris. IL-6 and MMP-1 levels in the media were measured, respectively, using human IL-6 (DIACLONE, Stamford, Conn.) and MMP-1 (Calbiochem, San Diego, Calif.) ELISA kits according to manufacturers' instructions. These measurements served as indicators of cell inflammatory activity in response to UV exposure.
Such peptide-mediated IL-6 down-regulation was also evident in human fibroblasts after exposure to UVB.

For data set [4], the system named is IL-6 expression. As to the kind of experiment: UVB-induced IL-6 expression in human skin epithelial cells (ELISA). The following applies: for reduction of IL-6 levels: skin epithelial cells treated with UVB; for repression of UVB-induced IL-6 expression: skin epithelial cells, peptide 40 μg/mL, 24 hours post UVB. Type of data set: cell-based. The protocol:
as §2
All the tetrapeptides listed in Table I were subjected to a screening test at 40 μg/mL for potential down-regulation of this response (data not shown).
P1422 (SEQ ID NO:1) reduced IL-6 levels by 19% and 25% at 10 and 20 μg/mL, respectively; and P1423 (SEQ ID NO:2) reduced IL-6 levels by 10% and 20% at 10 and 20 μg/mL, respectively.

For data set [5], the system named is MMP-1 expression. As to the kind of experiment: MMP-1 induction in fibroblasts incubated in media conditioned by UVB-treated keratinocytes (ELISA). Type of data set: cell-based, human. The following applies: peptide 10 μg/mL. How it is done:
as §1

In data set [6] the target is T1, plasmin (Homo sapiens, UniProt P00747).
T1 construct: purchased Sigma-Aldrich
As to the kind of experiment: Peptide degradation by plasmin with or without protease inhibitor (LC/MS). The following applies: for Survival: peptide 1 mg/mL. Type of data set: in vitro ADME. How it is done:
(§3) Peptides of synthetic origin and LL-37 were used in the protease processing experiments at a concentration of 1-2 mg/mL in 0.5M MOPS pH 8.5/0.5M NaCl final buffer concentration. Proteases were used at a concentration of 0.020-0.050 mg/mL.
(§4) Experiments were run in pairs, one with protease inhibitor and one without a protease inhibitor. Liquid chromatography/mass spectrometry (LC/MS) spectra were collected at approximately 1-minute, 1-hour, 4-hour and 24-hour time points from the time of adding protease to the peptide (time zero). LC/MS spectra were collected using a standard reverse phase gradient starting at 5% acetonitrile and ramping up to 65% acetonitrile in 25 minutes.
(§5) The proteases employed in the study were initially dissolved in a 1M NaCl solution, while the peptides were dissolved in 1M MOPS buffer at pH 8.5. The solutions were equilibrated to 37° C. and then mixed at a ratio of 1:1 to start each experiment. Lower buffer concentrations were also used (0.1M MOPS pH 8.5 and 0.2M NaCl). Protease inhibitors were tested at several different concentrations (low and high from 0.02 mg/mL to 40 mg/mL) against a given protease.
(§6) The mass spectrometer used in these studies has a limit of detection below which the specific molecular weight of a molecule cannot be identified from the TIC trace. In these below-detection situations, it was assumed that the tested peptide was completely degraded.
(§7) A series of experiments were performed employing the above-described methodology to determine the utility of the invention as it regards a wider range of proteases, peptides and protease inhibitors. If, at any specific time-point, there was no detectable parent peptide (i.e., the absence of non-degraded peptide), then that time-point was documented as the time required for peptide degradation.

The target of data set [7] is T2, chymotrypsin (Bos taurus, UniProt P00766).
T2 construct: purchased Sigma-Aldrich
The data set can be described thus: Peptide degradation by chymotrypsin with or without protease inhibitor (LC/MS). Type of data set: in vitro ADME. The following applies: peptide 1 mg/mL. How it is done: as §3, §4, §5, §6, §7

Data set [8] relates to kallikrein. As to the kind of experiment: Peptide degradation by kallikrein with or without protease inhibitor (LC/MS). Type of data set: in vitro ADME. The note with it: Kallikrein 25 μg/mL, peptide 1 mg/mL. The protocol:
as §3, §4, §5
The mass spectrometer used in these studies has a limit of detection below which the specific molecular weight of a molecule cannot be identified from the TIC trace. In these below-detection situations, it was assumed that the tested peptide was completely degraded. […]

The subject of data set [9] is trypsin. The data set can be described thus: Peptide degradation by trypsin with or without protease inhibitor (LC/MS). The note with it: for Survival: Trypsin 25 μg/mL, peptide 1 mg/mL. Type of data set: in vitro ADME. The protocol: as §3, §4, §5, §6, §7
Data set [10] concerns elastase. As to the kind of experiment: Peptide degradation by elastase with or without protease inhibitor (LC/MS). Type of data set: in vitro ADME. The following applies: Elastase 25 μg/mL, peptide 1 mg/mL. The protocol: as §3, §4, §5, §6, §7

Several values for one entry are separate records, joined by “and”; a condition that tells them apart may be missing. Equal values may be shown once. Ends that are not written are not given here. Peptide text beside a SMILES is read from it. * marks the point of attachment. Decanoyl = CCCCCCCCCC(=O)*

T1 sequence (P00747 581-810 limits assumed, species assumed): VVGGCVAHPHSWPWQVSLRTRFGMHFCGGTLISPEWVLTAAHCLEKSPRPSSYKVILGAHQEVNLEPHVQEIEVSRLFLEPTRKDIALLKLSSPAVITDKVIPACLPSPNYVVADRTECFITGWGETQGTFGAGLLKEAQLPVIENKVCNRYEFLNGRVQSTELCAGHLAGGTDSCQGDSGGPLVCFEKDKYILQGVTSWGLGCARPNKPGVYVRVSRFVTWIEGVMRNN
T1 sequence (P00747 97-580 limits assumed, species assumed): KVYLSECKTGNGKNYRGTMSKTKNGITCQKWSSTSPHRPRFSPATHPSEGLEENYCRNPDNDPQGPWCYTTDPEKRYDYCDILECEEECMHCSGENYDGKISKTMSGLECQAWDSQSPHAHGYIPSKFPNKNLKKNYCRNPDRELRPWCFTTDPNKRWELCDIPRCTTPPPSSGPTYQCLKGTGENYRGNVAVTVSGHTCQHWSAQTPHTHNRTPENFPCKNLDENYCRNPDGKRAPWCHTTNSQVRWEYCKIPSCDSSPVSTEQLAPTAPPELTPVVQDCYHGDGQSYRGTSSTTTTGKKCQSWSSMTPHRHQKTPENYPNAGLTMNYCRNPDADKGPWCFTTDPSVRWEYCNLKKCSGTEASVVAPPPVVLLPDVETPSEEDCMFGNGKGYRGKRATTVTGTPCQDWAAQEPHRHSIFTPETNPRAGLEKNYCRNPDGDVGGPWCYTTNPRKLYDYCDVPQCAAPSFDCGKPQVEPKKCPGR

Turning to “PQEK-NH2 [P1422, tetrapeptide amidated at the carboxy terminus]”, the “down-regulation of IL-6 expression” value in [1] is given as “down-regulate IL-6 expression”. The “down-regulation of UVA-induced MMP-1 expression” value in data set [2] is recorded as “able to down-regulate”. For the same compound, the “reduction of IL-6 levels compared to control” value in [3] (peptide 10 μg/mL) came out at 30%. Besides, the “reduction of IL-6” value in [3] (peptide concentrations lower than 10 μg/mL) is on record as “no significant reduction”. Besides, the “reduction of IL-6 levels” value in data set [4] (peptide 10 μg/mL) is listed as 19%; in [4] (peptide 20 μg/mL) it was 25%. Besides, in data set [4], the “repression of UVB-induced IL-6 expression” value is “reproducible repression”. Further, in data set [5], the MMP-1 induction entry is “far less MMP-1 induction”.

Take `CC[C@H](C)[C@H](NC(=O)[C@H](CCCCN)NC(=O)[C@H](CCC(=O)O)NC(=O)[C@H](CCCCN)NC(=O)[C@H](CO)NC(=O)[C@H](CCCCN)NC(=O)[C@H](CCCNC(=N)N)NC(=O)[C@H](Cc1ccccc1)NC(=O)[C@H](Cc1ccccc1)NC(=O)[C@H](CC(=O)O)NC(=O)CNC(=O)[C@H](CC(C)C)NC(=O)[C@@H](N)CC(C)C)C(=O)NCC(=O)N[C@@H](CCCCN)C(=O)N[C@@H](CCC(=O)O)C(=O)N[C@@H](Cc1ccccc1)C(=O)N[C@@H](CCCCN)C(=O)N[C@@H](CCCNC(=N)N)C(=O)N[C@H](C(=O)N[C@H](C(=O)N[C@@H](CCC(N)=O)C(=O)N[C@@H](CCCNC(=N)N)C(=O)N[C@H](C(=O)N[C@@H](CCCCN)C(=O)N[C@@H](CC(=O)O)C(=O)N[C@@H](Cc1ccccc1)C(=O)N[C@@H](CC(C)C)C(=O)N[C@@H](CCCNC(=N)N)C(=O)N[C@@H](CC(N)=O)C(=O)N[C@@H](CC(C)C)C(=O)N[C@H](C(=O)N1CCC[C@H]1C(=O)N[C@@H](CCCNC(=N)N)C(=O)N[C@H](C(=O)N[C@@H](CCC(=O)O)C(=O)N[C@@H](CO)C(=O)O)[C@@H](C)O)C(C)C)[C@@H](C)CC)C(C)C)[C@@H](C)CC` [LL-37]: the parent peptide detection entry in [6] is reported as “undetectable”. The Survival was less than 1 h in [6] (Plasmin 22 μg/mL, no protease inhibitor); less than 0.75 h in data set [6] (Plasmin 22 μg/mL, no protease inhibitor, Expt. 38); less than 4 h in data set [6] (Plasmin 22 μg/mL, tranexamic acid 9 mg/mL); less than 1 h in data set [7] (Chymotrypsin 22 μg/mL, no protease inhibitor); less than 1 h in data set [7] (Chymotrypsin 22 μg/mL, tranexamic acid 9 mg/mL).

Take “FAKALKALLKALKAL-NH2 [HB64, FAKALKALLKALKAL-NH2]”: the Survival was less than 24 h in data set [8] (no protease inhibitor); less than 24 h in data set [8] (tranexamic acid 0.80 mg/mL); less than 4 h in data set [6] (Plasmin 20 μg/mL, no protease inhibitor); less than 24 h in [6] (Plasmin 22 μg/mL, tranexamic acid 40 mg/mL); <4 h and <6 h in data set [6] (Plasmin 25 μg/mL, no protease inhibitor); less than 4 h in data set [6] (Plasmin 46 μg/mL, no protease inhibitor). The Survival was less than 6 h in data set [6] (Plasmin 50 μg/mL, tranexamic acid 10 mg/mL); less than 24 h in data set [7] (Chymotrypsin 25 μg/mL, aprotinin 0.02 mg/mL); less than 1 h in data set [7] (Chymotrypsin 25 μg/mL, no protease inhibitor); less than 1 h in [10] (aprotinin 0.02 mg/mL); less than 1 h in data set [10] (no protease inhibitor); less than 1 h in data set [10] (tranexamic acid 0.80 mg/mL). Besides, the “parent peak in TIC traces” value in data set [9] is reported as “reduced over time”. In addition, the “amount of parental peptide by XIC trace compared to plasmin alone” value in [6] (plasmin plus tranexamic acid vs plasmin alone) is recorded as “five-times greater”. For the same compound, the “protection of peptide (TIC and XIC traces)” value in [6] (plasmin plus tranexamic acid, 4-hour exposure) is reported as “protected from plasmin-mediated proteolysis”. Also, the “degradation of peptide (TIC and XIC traces)” value in data set [6] (plasmin, no inhibitor, 4-hour exposure) was “most of the HB64 peptide was degraded”.

Take “PQEI-NH2 [P1423, tetrapeptide amidated at the carboxy terminus]”: the “down-regulation of IL-6 expression” value in [1] is reported as “down-regulate IL-6 expression”. In addition, the “down-regulation of UVA-induced MMP-1 expression” value in [2] is “able to down-regulate”. Also, the “reduction of IL-6 levels compared to control” value in data set [3] (peptide 2 μg/mL) was found to be 24%; in data set [3] (peptide 5 μg/mL), 30%; in [3] (peptide 10 μg/mL), 48%. Besides, the “reduction of IL-6 levels” value is 10% in [4] (peptide 10 μg/mL) and 20% in data set [4] (peptide 20 μg/mL). The “repression of UVB-induced IL-6 expression” value in [4] is recorded as “reproducible repression”. Besides, the MMP-1 induction entry in data set [5] is on record as “far less MMP-1 induction”.

Consider `CCCCCCCCCC(=O)N[C@@H](CCCCN)C(=O)N[C@@H](Cc1ccccc1)C(=O)N[C@@H](CCCCN)C(=O)N[C@@H](Cc1c[nH]c2ccccc12)C(=O)N1CCC[C@H]1C(=O)N[C@@H](Cc1c[nH]c2ccccc12)C(N)=O` [HB1345, decanoyl-KFKWPW-NH2] (Decanoyl-KFKWPW-NH2), for which the figures for the Survival in data set [9] (aprotinin 0.02 mg/mL) and in data set [9] (no protease inhibitor) were greater than 24 h and less than 1 h, respectively.

FALLKL-NH2 [HB168]: the Survival in data set [9] (aprotinin 0.02 mg/mL) is greater than 24 h; in data set [9] (no protease inhibitor) it was less than 1 h.

Source of the values: patent publication US8071555B2, “Protective skin care peptides” (Helix BioMedix Inc., priority 2007, dated 2011).
